Structures can show the parent of a compound that is named as a salt. Where two headings read alike, the source gives them in different places.
Key:
[1] = target: T1, SARS-CoV-2 PLpro (nsp3 1564–1878) (Severe acute respiratory syndrome coronavirus 2, UniProt P0DTD1); assay: biochemical; design: FRET-quenched peptide (Pro3) cleavage by PLpro, 10 min pre-incubation, slope over 20 min, normalised to no-compound control; conditions: low concentration screen, read-out: % of control remaining
[2] = target: T1, SARS-CoV-2 PLpro (nsp3 1564–1878); assay: biochemical; design: FRET-quenched peptide (Pro3) cleavage by PLpro, 10 min pre-incubation, slope over 20 min, normalised to no-compound control; conditions: high concentration screen, read-out: % of control remaining

`O=C(O)CC[C@H](NC(=O)N[C@@H](CCCCNC(=O)[C@H](Cc1ccc2ccccc2c1)NC(=O)[C@H]1CC[C@H](CNC(=O)CN2CCN(CC(=O)O)CCN(CC(=O)O)CCN(CC(=O)O)CC2)CC1)C(=O)O)C(=O)O` [Vipivotide tetraxetan] showed a remaining activity at 1.25 µM ([1]; Well no.=7834) of 103% and a remaining activity at 3.75 µM ([2]; Well no.=7834) of 104%.
`COc1c2ccoc2cc2oc(C)cc(=O)c12` [Visnagin] was tested, and the remaining activity at 1.25 µM ([1]; Well no.=3689) was 99.6% and the remaining activity at 3.75 µM ([2]; Well no.=3689) was 101%.
For `CC(=O)OC/C=C(C)/C=C/C=C(C)/C=C/C1=C(C)CCCC1(C)C` [Vitamin A acetate], the remaining activity at 1.25 µM ([1]; Well no.=1700) was 101% and the remaining activity at 3.75 µM ([2]; Well no.=1700) was 97.8%.
`C=C1CC[C@H](O)C/C1=C/C=C1\CCC[C@]2(C)[C@@H]([C@H](C)/C=C/[C@H](C)C(C)C)CC[C@@H]12` [Vitamin D2 (Ergocalciferol)] gave a remaining activity at 1.25 µM ([1]; Well no.=4684) of 99.3% and a remaining activity at 3.75 µM ([2]; Well no.=4684) of 100%.
`C=C1CC[C@H](O)C/C1=C/C=C1\CCC[C@]2(C)[C@@H]([C@H](C)/C=C/[C@H](C)C(C)C)CC[C@@H]12` [Vitamin D2] showed a remaining activity at 1.25 µM ([1]; Well no.=7411) of 107% and a remaining activity at 3.75 µM ([2]; Well no.=7411) of 106%.
With `C=C1CC[C@H](O)C/C1=C/C=C1\CCC[C@]2(C)[C@@H]([C@H](C)CCCC(C)C)CC[C@@H]12` [Vitamin D3 (Cholecalciferol)] the remaining activity at 1.25 µM ([1]; Well no.=4702) was 99.7% and the remaining activity at 3.75 µM ([2]; Well no.=4702) was 100%.
Compound `C[C@@H]1O[C@@H](O[C@@H]2[C@@H](O)[C@H](O)[C@@H](CO)O[C@H]2c2c(O)cc(O)c3c(=O)cc(-c4ccc(O)cc4)oc23)[C@H](O)[C@H](O)[C@H]1O` [Vitexin-2-O-rhamnoside] has a remaining activity at 1.25 µM ([1]; Well no.=3405) of 91.6% and a remaining activity at 3.75 µM ([2]; Well no.=3405) of 80.4%.
`O=c1cc(-c2ccc(O)cc2)oc2c([C@@H]3O[C@H](CO)[C@@H](O)[C@H](O)[C@H]3O)c(O)cc(O)c12` [Vitexin] was tested, and the remaining activity at 1.25 µM ([1]; Well no.=3396) was 95.4% and the remaining activity at 3.75 µM ([2]; Well no.=3396) was 97.6%.
For `OCC(CO)N[C@H]1C[C@](O)(CO)[C@@H](O)[C@H](O)[C@H]1O` [Voglibose], the remaining activity at 1.25 µM ([1]; Well no.=8298) was 90.6% and the remaining activity at 3.75 µM ([2]; Well no.=8298) was 93.5%.
`CCOC(=O)N[C@@H]1CC[C@@H]2[C@@H](C1)C[C@H]1C(=O)O[C@H](C)[C@H]1[C@H]2/C=C/c1ccc(-c2cccc(F)c2)cn1` [Vorapaxar] was tested, and the remaining activity at 1.25 µM ([1]; Well no.=7567) was 97.6% and the remaining activity at 3.75 µM ([2]; Well no.=7567) was 89.4%.
`C[C@@H](c1ncncc1F)[C@](O)(Cn1cncn1)c1ccc(F)cc1F` [Voriconazole] gave a remaining activity at 1.25 µM ([1]; Well no.=4857) of 101% and a remaining activity at 3.75 µM ([2]; Well no.=4857) of 103%.
Work on `O=C(CCCCCCC(=O)Nc1ccccc1)NO` [Vorinostat (SAHA)] yielded a remaining activity at 1.25 µM ([1]; Well no.=1866) of 87.6% and a remaining activity at 3.75 µM ([2]; Well no.=1866) of 82.8%.
`Cc1ccc(Sc2ccccc2N2CCNCC2)c(C)c1` [Vortioxetine (hydrobromide)] showed a remaining activity at 1.25 µM ([1]; Well no.=7384) of 98.6% and a remaining activity at 3.75 µM ([2]; Well no.=7384) of 98.7%.
In the case of `Cc1ccc(Sc2ccccc2N2CCNCC2)c(C)c1` [Vortioxetine], the remaining activity at 1.25 µM ([1]; Well no.=6269) is reported as 102% and the remaining activity at 3.75 µM ([2]; Well no.=6269) is reported as 102%.
With `COC(=O)/C(=C1/OC(=O)C(c2ccccc2)=C1O)c1ccccc1` [Vulpinic acid] the remaining activity at 1.25 µM ([1]; Well no.=3513) was 102% and the remaining activity at 3.75 µM ([2]; Well no.=3513) was 104%.
Compound `COc1ccccc1N1CCN(CCN(C(=O)C2CCCCC2)c2ccccn2)CC1` [WAY-100635 (maleate salt)] has a remaining activity at 1.25 µM ([1]; Well no.=7000) of 99.7% and a remaining activity at 3.75 µM ([2]; Well no.=7000) of 99.5%.
For `COc1ccccc1N1CCN(CCN(C(=O)C2CCCCC2)c2ccccn2)CC1` [WAY-100635 maleate], the remaining activity at 1.25 µM ([1]; Well no.=1292) was 107% and the remaining activity at 3.75 µM ([2]; Well no.=1292) was 107%.
`CN(C)CCn1cc(S(=O)(=O)c2cccc(F)c2)c2cccnc21` [WAY-208466 dihydrochloride] gave a remaining activity at 1.25 µM ([1]; Well no.=6065) of 98.6% and a remaining activity at 3.75 µM ([2]; Well no.=6065) of 97.1%.
`CC(C)OC(=O)C1=CN(C(=O)c2ccc(F)c(F)c2)CC(C)(C)c2c1[nH]c1ccccc21` [WAY-362450] gave a remaining activity at 1.25 µM ([1]; Well no.=4928) of 95.1% and a remaining activity at 3.75 µM ([2]; Well no.=4928) of 96.2%.
`COc1cccc(OC)c1OCCNCC1COc2ccccc2O1` (stereo not drawn) [WB-4101 hydrochloride] gave a remaining activity at 1.25 µM ([1]; Well no.=443) of 96% and a remaining activity at 3.75 µM ([2]; Well no.=443) of 99.1%.
`Cc1ccc(-c2nn(C(C)(C)CNC(=O)c3ccncc3)c3ncnc(N)c23)cc1` [WEHI-345] gave a remaining activity at 1.25 µM ([1]; Well no.=6690) of 96.4% and a remaining activity at 3.75 µM ([2]; Well no.=6690) of 96.2%.
Compound `COc1cc2ncnc(Nc3ccc(O)cc3)c2cc1OC` [WHI-P131] has a remaining activity at 1.25 µM ([1]; Well no.=1338) of 93.8% and a remaining activity at 3.75 µM ([2]; Well no.=1338) of 97.1%.
`COc1cc2ncnc(Nc3cccc(O)c3)c2cc1OC` [WHI-P180, Hydrochloride] was tested, and the remaining activity at 1.25 µM ([1]; Well no.=2679) was 96% and the remaining activity at 3.75 µM ([2]; Well no.=2679) was 96.7%.
Compound `C#C[C@]1(O)CC[C@H]2[C@@H]3CCC4=Cc5nc6nc7ccccc7n6cc5C[C@]4(C)[C@H]3CC[C@@]21C` [WIN 62,577] has a remaining activity at 1.25 µM ([1]; Well no.=1196) of 99.9% and a remaining activity at 3.75 µM ([2]; Well no.=1196) of 97.4%.
`C[C@H](NC(=O)/C(C#N)=C/c1cccc(Br)n1)c1ccccc1` [WP1066] gave a remaining activity at 1.25 µM ([1]; Well no.=4779) of 103% and a remaining activity at 3.75 µM ([2]; Well no.=4779) of 99%.
`CCC[C@H](NC(=O)/C(C#N)=C/c1cccc(Br)n1)c1ccccc1` [WP1130] was tested, and the remaining activity at 1.25 µM ([1]; Well no.=4862) was 95.4% and the remaining activity at 3.75 µM ([2]; Well no.=4862) was 98.1%.
For `NCCCNCCS` [WR-1065 dihydrochloride], the remaining activity at 1.25 µM ([1]; Well no.=6786) was 94.6% and the remaining activity at 3.75 µM ([2]; Well no.=6786) was 94.3%.
For `Cc1cccc(Nc2cc(Cl)nc(SCC(=O)O)n2)c1C` [WY-14643], the remaining activity at 1.25 µM ([1]; Well no.=4570) was 97.3% and the remaining activity at 3.75 µM ([2]; Well no.=4570) was 103%.
In the case of `CCOC(=O)c1cnc(C#Cc2ccc3c(c2)C(C)(C)CC[S+]3[O-])nc1` (stereo not drawn) [WYC-209], the remaining activity at 1.25 µM ([1]; Well no.=7204) is reported as 92.4% and the remaining activity at 3.75 µM ([2]; Well no.=7204) is reported as 90.8%.
`COC(=O)Nc1ccc(-c2nc(N3CCOCC3)c3cnn(C4CCN(C(=O)OC)CC4)c3n2)cc1` [WYE-354] was tested, and the remaining activity at 1.25 µM ([1]; Well no.=4769) was 101% and the remaining activity at 3.75 µM ([2]; Well no.=4769) was 103%.
Compound `COC(=O)Nc1ccc(-c2nc(N3CCOCC3)c3cnn(C4CCN(Cc5cccnc5)CC4)c3n2)cc1` [WYE-687] has a remaining activity at 1.25 µM ([1]; Well no.=4645) of 104% and a remaining activity at 3.75 µM ([2]; Well no.=4645) of 103%.
`CNC(=O)Nc1ccc(-c2nc(N3CC4CCC(C3)O4)c3cnn(C4CCC5(CC4)OCCO5)c3n2)cc1` [WYE-125132] was tested, and the remaining activity at 1.25 µM ([1]; Well no.=4641) was 99.8% and the remaining activity at 3.75 µM ([2]; Well no.=4641) was 104%.
`c1ccc(NCc2ccc(CNc3ccccn3)cc2)nc1` [WZ811] showed a remaining activity at 1.25 µM ([1]; Well no.=7135) of 102%, a remaining activity at 1.25 µM ([1]; Well no.=8459) of 98.2% and a remaining activity at 3.75 µM ([2]; Well no.=7135) of 96.2%. It also gave a remaining activity at 3.75 µM ([2]; Well no.=8459) of 88.4%.
In the case of `C=CC(=O)Nc1cccc(Oc2nc(Nc3ccc(N4CCN(C)CC4)cc3)ncc2Cl)c1` [WZ3146], the remaining activity at 1.25 µM ([1]; Well no.=4711) is reported as 103% and the remaining activity at 3.75 µM ([2]; Well no.=4711) is reported as 106%.
Compound `C=CC(=O)Nc1cccc(Oc2nc(Nc3ccc(N4CCN(C)CC4)cc3OC)ncc2Cl)c1` [WZ4002] has a remaining activity at 1.25 µM ([1]; Well no.=4713) of 107% and a remaining activity at 3.75 µM ([2]; Well no.=4713) of 106%.
